10 compounds from patent publication EP0432677B1, “N-(pyrrolo[2,3-d]pyrimidin-3-ylacyl)-glutamic acid derivatives” (THE TRUSTEES OF PRINCETON UNIVERSITY, priority 1989, dated 1991) can be followed below.

In brackets after ≈: the same amount, converted by molar mass. Entries after “also recorded” stand apart in the source; their conditions may differ.

One test deals with CCRF-CEM. In words: Representative inhibition values against CCRF-CEM cell cultures. The test is classed as cell-based. Conditions: Homo sapiens.
Test [1] has as its system Cem human lymphoblastic leukemia cells. Put plainly: Reversal studies to identify the point of enzymatic inhibition (Example 11). The test is classed as cell-based. Conditions: from reversal with 100 µM hypoxanthine and/or 5 µM thymidine. As for the experimental part: The mechanism of action of each compound was determined through further tests employing so-called "reversal" studies. These studies supplied compounds or precursors which, alone or together, identified the specific point of enzymatic inhibition. • (a) Hypoxanthine - Hypoxanthine will reverse the inhibitory effects of a compound if the compound functions as an inhibitor of purine de novo synthesis. The availability of hypoxanthine thus allows cells to bypass purine de novo synthesis. • (b) Thymidine - Thymidine alone will reverse the inhibitory effects of a compound if the compound functions as a specific inhibitor of thymidylate synthetase. • (c) Hypoxanthine and Thymidine - If a compound is determined in (a) to not be an inhibitor of purine de novo synthesis, and in (b) to not be an inhibitor of thymidilate synthetase, then a reversal study utilizing hypoxanthine and thymidine, in combination, will determine whether the compound can produce inhibition of both pathways. Thus if this combination reverses the inhibitory effects of a compound, the compound most likely functions as an inhibitor of dihydrofolate reductase (involved in both purine and pyrimidine biosynthesis).
In each case, the basic procedure outlined above was followed, modified in that 250 µl of the reversal compound [or of each reversal compound in […]] was added to the test wells, and the amount of serumless media added to each test well was decreased [or entirely eliminated in (b)] by the same amount. The reversal compounds were prepared as 8X stock solutions in phosphate buffered saline (sterile filtered through a 0.2 µ acrodisc filter - Gelman) so that 250 µl of the stock solution would yield a final concentration of 100 µM hypoxanthine and/or 5 µM thymidine.

Another test has as its system tumor cells. Put plainly: In vivo antitumor activity in mice inoculated with tumor cells, eight daily i.p. doses. Further details: species or system strain DBA/2. Conditions: for % Inhibition / Tumor Weight: eight daily doses; for Tumor Weight: mean ± standard deviation. The protocol: Female mice, strain DBA/2, were inoculated with tumor cells. Treatment with the test compounds began the day following inoculation. The treatment consisted of eight daily doses i.p. (intraperitoneal) of either Compounds A and C for eight consecutive days. Tumor size was measured on the day following the last day of treatment to determine the inhibitory effect of the test compounds on tumor growth.

In test [2] the test system is Cem human lymphoblastic leukemia cells. Put plainly: Inhibition of growth of Cem human lymphoblastic leukemia cells, 72 hours incubation, Coulter Counter particle count (Example 11). The class given is cell-based. Conditions: for activity at 0.015 µg/mL: concentration 0.015 µg/ml; for activity at 0.045 µg/mL: concentration 0.045 µg/ml; for activity at 0.137 µg/mL: concentration 0.137 µg/ml; for activity at 0.411 µg/mL: concentration 0.411 µg/ml; for activity at 1.23 µg/mL: concentration 1.23 µg/ml; for activity at 3.7 µg/mL: concentration 3.7 µg/ml; for activity at 11.1 µg/mL: concentration 11.1 µg/ml; for activity at 33.3 µg/mL: concentration 33.3 µg/ml; for IC50: concentration inhibiting 50% of cellular growth, read-out: relative overall in vitro inhibitory concentration (IC50). As for the experimental part: Each of the compounds was dissolved in 100% dimethylsulfoxide. Dilutions of each compound were prepared to yield a range of test concentrations as hereinafter indicated.
Cem human lymphoblastic leukemia cells are grown in RPMI 1640 media (MABio), supplemented with 10% dialyzed fetal bovine serum (Gibco) at 37°C in humidified atmospheric conditions of 95% air and 5% CO₂. The cells are grown in static suspension (T-flask, Corning) maintained in log phase at a concentration of 3-7 x 10⁵ cells/ml.
(i) 10 µl of a test compound is placed in a well (Costar 24 well clusters). This step is repeated for each test concentration of the compounds. (ii) 500 µl of serum-free media is added to each well. (iii) A sterile bottle containing RPMI 1640 media supplemented with 10% dialyzed fetal bovine serum, 16 mM hepes and 8 mM mops buffers and 3 x 10⁴ cells/ml is placed on a magnetic stirrer. A Wheaton peristaltic pump is used to deliver 1.5 ml of this cell suspension to each well. The resulting final volume delivered to each well is 2.0 ml at a cellular concentration of […]. (iv) The cluster wells are incubated at 37°C in a humidified incubator (95% air, 5% CO₂) for 72 hours. (v) After the incubation period, measurements of each well are taken using the ZB1 Coulter Counter particle counter and the IC₅₀ (concentration inhibiting 50% of cellular growth) is determined. (vi) The results of this test are as follows: Table I

Setting [3] is: Table VI Run 1, dose 12.50 mg/kg i.p.
[4] abbreviates: Table VI Run 1, dose 25.00 mg/kg i.p.
[5] abbreviates: Table VI Run 1, dose 50.00 mg/kg i.p.
[6] abbreviates: Table VI Run 1, dose 100.00 mg/kg i.p.
Where [7] appears, read: Table VI Run 1, dose 200.00 mg/kg i.p.
Setting [8] is: Table VI Run 2, dose 0.6256 mg/kg i.p.
The mark [9] stands for this setting: Table VI Run 2, dose 1.25 mg/kg i.p.
[10] abbreviates: Table VI Run 2, dose 5 mg/kg i.p.
The mark [11] stands for this setting: Table VI Run 2, dose 10 mg/kg i.p.
Where [12] appears, read: Table VI Run 2, dose 20 mg/kg i.p.
Where [13] appears, read: Table VI Run 2, dose 40 mg/kg i.p.
The mark [14] stands for this setting: Homo sapiens, CCRF-CEM, 72 hours, read-out: Cellular Growth (%).
Setting [15] is: Homo sapiens, CCRF-CEM, 72 hours.

As a reminder, the % Inhibition is the share of the control response that was lost under treatment. A higher % Inhibition goes with a response far below the control.

Compound `O=C(O)CC[C@H](NC(=O)c1ccc(CCc2c[nH]c3ncnc(O)c23)cc1)C(=O)O` [N-{4-[2-(4-hydroxypyrrolo[2,3-d]pyrimidin-3-yl)ethyl]benzoyl}-L-glutamic acid] yielded an IC50 in the test on CCRF-CEM of 1.2 µg/mL (≈ 2.91 µM).
On to `Nc1nc(O)c2c(CCc3ccc(C(=O)NC(CCC(=O)O)C(=O)O)cc3)c[nH]c2n1` (stereo not shown) [Compound C], for which the “mechanism of action (point of enzymatic inhibition)” value in test [1] is reported as “appear to inhibit TS”. In addition, the “% Inhibition” value is reported as 98% with tumor cells (setting [3]); 100% with tumor cells (setting [4]); 100% in the test on tumor cells (setting [5]); 100% with tumor cells (setting [6]); 100% in the test with tumor cells (setting [7]); 0% in the test with tumor cells (setting [8]). Also, the “% Inhibition” value came out at 0% with tumor cells (setting [9]); 83% with tumor cells (setting [10]); 97% in the test with tumor cells (setting [11]); 100% in the test with tumor cells (setting [12]); 100% with tumor cells (setting [13]). Also, the “Tumor Weight” value with tumor cells (setting [3]) turned out to be 102 ± 166 mg; in the test on tumor cells (setting [4]), 0 ± 0 mg; in the test with tumor cells (setting [5]), 0 ± 0 mg; in the test with tumor cells (setting [6]) it was 0 ± 0 mg; with tumor cells (setting [7]) it was 0 ± 0 mg; with tumor cells (setting [8]), 7381 ± 2397 mg. In addition, the “Tumor Weight” value in the test with tumor cells (setting [9]) is reported as 6682 ± 2300 mg; in the test with tumor cells (Table VI Run 2, dose 2.5 mg/kg i.p.) it was 2908 ± 1948 mg; with tumor cells (setting [10]), 1034 ± 657 mg; in the test on tumor cells (setting [11]), 196 ± 152 mg; with tumor cells (setting [12]), 18 ± 57 mg; in the test on tumor cells (setting [13]), 0 ± 0 mg. In addition, the “inhibitory effect on tumor growth in vivo” value in the test with tumor cells (overall assessment in words) is given as “marked in vivo inhibitory effect; also recorded: highly active”. In addition, the activity at 0.005 µg/mL in test [2] (Homo sapiens, CCRF-CEM, concentration 0.005 µg/ml, 72 hours, read-out: Cellular Growth (%)) amounted to 96%. Moreover, the activity at 0.015 µg/mL in test [2] (setting [14]) was 25%. Also, the activity at 0.045 µg/mL in test [2] (setting [14]) stood at 14%. Besides, the activity at 0.137 µg/mL in test [2] (setting [14]) was 14%. Besides, in test [2] (setting [14]), the activity at 0.411 µg/mL was found to be 13%. Moreover, the activity at 1.23 µg/mL in test [2] (setting [14]) came to 14%. Also, the activity at 3.7 µg/mL in test [2] (setting [14]) came out at 13%. The activity at 11.1 µg/mL in test [2] (setting [14]) worked out at 12%. For the same compound, the activity at 33.3 µg/mL in test [2] (setting [14]) stood at 12%. For the same compound, the activity at 100 µg/mL in test [2] (Homo sapiens, CCRF-CEM, concentration 100.0 µg/ml, 72 hours, read-out: Cellular Growth (%)) turned out to be 14%. For the same compound, the IC50 in test [2] (setting [15]) was 0.007 µg/mL (≈ 0.0164 µM). Also, the “more active in vitro than Compound A by a factor” value in test [2] (in vitro, relative to Compound A) is reported as “at least 25 fold”.
`Cc1nc(O)c2c(CCc3ccc(C(=O)N[C@@H](CCC(=O)O)C(=O)O)cc3)c[nH]c2n1` [N-{4-[2-(4-hydroxy-6-methylpyrrolo[2,3-d]pyrimidin-3-yl)ethyl]-benzoyl}-L-glutamic acid]: in the test with CCRF-CEM, the IC50 is 0.0084 µg/mL (≈ 0.0197 µM).
The same measure, in the same setting: the same measure for `Nc1nc(O)c2c(CCc3ccc(C(=O)N[C@@H](CCC(=O)O)C(=O)O)c(F)c3)c[nH]c2n1`: 0.008 µg/mL (≈ 0.018 µM); for `COc1ccc(CCc2c[nH]c3nc(N)nc(O)c23)cc1` [3-[2-(4-methoxyphenyl)ethyl]-4-hydroxy-6-aminopyrrolo[2,3-d]pyrimidine]: above 20 µg/mL.
In the case of `Nc1nc(O)c2c(CCc3ccc(C(=O)N[C@@H](CCC(=O)O)C(=O)O)s3)c[nH]c2n1` [N-{5-[2-(4-hydroxy-6-aminopyrrolo[2,3-d]-pyrimidin-3-yl)ethyl]thien-2-ylcarbonyl}-L-glutamic acid], the IC50 with CCRF-CEM amounted to 0.025 µg/mL (≈ 0.0577 µM).
The compound `Nc1nc(O)c2c(CCc3cccc(F)c3)c[nH]c2n1` displayed an IC50 in the test on CCRF-CEM above 20 µg/mL.
As to `Nc1nc(O)c2c(CCc3ccc(C(=O)O)cc3)c[nH]c2n1`, the IC50 in the test with CCRF-CEM was above 20 µg/mL.
In the test with CCRF-CEM, `Nc1nc(O)c2c(CCc3ccc(C(=O)N[C@@H](CCC(=O)O)C(=O)O)cc3F)c[nH]c2n1` gave an IC50 of 0.019 µg/mL (≈ 0.0427 µM).
With `Nc1nc(O)c2c(CCCc3ccc(C(=O)NC(CCC(=O)O)C(=O)O)cc3)c[nH]c2n1` (stereo not shown) [Compound B], the “mechanism of action (point of enzymatic inhibition)” value in test [1] is “inhibition of DHFR rather than TS”. Also, in test [2] (setting [14]), the activity at 0.015 µg/mL was 76.9%, the activity at 0.045 µg/mL came to 33.5%, the activity at 0.137 µg/mL was found to be 17.7% and the activity at 0.411 µg/mL stood at 13%. Besides, in test [2] (setting [14]), the activity at 1.23 µg/mL came out at 11.3%, the activity at 3.7 µg/mL was determined as 10.4%, the activity at 11.1 µg/mL came to 9.6% and the activity at 33.3 µg/mL came out at 10.8%. Also, in test [2] (setting [15]), the IC50 came out at 0.03 µg/mL (≈ 0.068 µM).
